In US5672707A (priority 1991, dated 1997):
Entries after “also recorded” stand apart in the source; their conditions may differ. Read-outs that look alike come from different tables or passages of the source.

How the values were obtained:
[1] = system: mice; assay: Step-down test, scopolamine induced amnesia; assay type: in vivo
Method: (§1) Psychoneurotropic activity of the declared compounds and their influence on learning and memory were observed using unbred male (18-20 g) mice and 180-200 g) rats, held at standard conditions (room temperature 21°-22° C., 12-hours lighting schedule, food and water ad libitum).

[2] = in vivo; details: intraperitoneal injection, Table 5; for LD50: in vivo, ip, read-out: LD50 (mg/kg) by Kerber
Method: as §1
Acute toxicity was studied by the method of Kerber with intra peritoneal drug injection.

[3] = system: mice; assay: Psychotropic activity test: motor activity; assay type: in vivo; details: intraperitoneally, dose 1/20 of LD
[4] = biological target: T1, Acetylcholinesterase, enzyme from human erythrocytes (Homo sapiens, UniProt P22303); assay: Acetylcholinesterase inhibition, spectrophotometric technique of Ellman; assay type: biochemical; details: for IC50: Acetylcholinesterase inhibition IC50 (M); for IC50 / Acetylcholinesterase inhibition IC50 (M): enzyme from human erythrocytes, Table 5
T1 construct: on the enzyme from human erythrocytes; from tissue; host or cells: human erythrocytes
Method: Acetylcholinesterase inhibition under the action of preparations was assessed by the spectrophotometric technique of Ellman on the enzyme from human erythrocytes.

[5] = system: rats; assay: Passive avoidance test in normal rats, 50% acquisition; assay type: in vivo; details: for change in vivo at 0.1 mg/kg: Rattus norvegicus, 20 min, read-out: Increase of the number of correct trails (% to control). Passive avoidance test (rats)
Method: as §1
(§2) The influence of drugs on reflex conditioning in rats was studied by the passive avoidance test in conditions of 50% acquisition. The effect of the compound was estimated by the increase of the relative number of learned animals with respect to that of control group. […] The other reference drug--noothropic agent piracetam--was given in the dose 250 mg/kg 60 min before training. Amnestic syndrome was stimulated by 20 days application of Sc at the daily dose of 1 mg/kg intraperitoneally. […] The passive avoidance test was performed within 24 hours after the last application of test preparations.

[6] = system: mice; assay: Psychotropic activity test: arecoline induced hyperkynesis; assay type: in vivo; details: intraperitoneally, dose 1/20 of LD
[7] = system: K channels; assay: Ionic permeabilities of excitable membranes, voltage clamp in the Ranvier node; assay type: cell-based, frog; details: for Block of K-channels IC (M): Ranvier node of the frog, voltage clamp
[8] = system: old rats; assay: Passive avoidance test in old rats; assay type: in vivo; details: old rats (18 month), 20 days application, 1 mg/kg (piracetam 250 mg/kg)
Method: as §2
Improvement of animal performance was accompanied by the normalizing of brain synaptosomes microviscosity under the action of all the substances tested. […] The latter observation indicates to the possible interference of amiridine and substance Vo into the processes of atherogenesis in old animals.

[9] = system: rats; assay: Passive avoidance test on the model of amnestic syndrome (multiple scopolamine injection); assay type: in vivo; details: for Passive avoidance latency: rats, scopolamine 1 mg/kg 20 days, then drug 10 days (1 mg/kg; piracetam 250 mg/kg)
Method: The influence of drugs on reflex conditioning in rats was studied by the passive avoidance test in conditions of 50% acquisition. The effect of the compound was estimated by the increase of the relative number of learned animals with respect to that of control group. […] The passive avoidance test was performed within 24 hours after the last application of test preparations.

[10] = system: rat adipocytes; assay: Lipid composition of adipocytes after incubation with compounds; assay type: cell-based; details: for FFA/TG in adipocytes / PL/CL in adipocytes / PL/TG in adipocytes: cells, Table 11; for FFAc/FFAm / PLc/PLm: distribution between cells and incubation medium, Table 13
Method: (§3) Lipid regulative activity of the declared compounds--derivatives of 9-amino acridine--were evaluated in vitro[…] using rat adipocytes. Adipocytes were separated from adipose tissue of testis appendages of adult male rats. Lipid composition analysis was performed by the method of thin-layer chromatography.
(§4) Quantitative analysis of phospholipids (PL), mono- and diacylglycerides (MDG), triacylglycerides (TG), free fatty acids (FFA), free cholesterol (FCL), and methyl esters of fatty acids (MEFA) was performed by the method of spectrophotometry.

[11] = system: rat adipocytes; assay: Lipid content in incubation medium after incubation of adipocytes; assay type: cell-based; details: for FFA/TG in incubation medium / PL/CL in incubation medium / PL/TG in incubation medium: Table 12
Method: as §3, §4

[12] = system: membranes of brain synaptosomes; assay: Microviscosity of brain synaptosome membranes, amnestic syndrome model; assay type: in vivo, rats; details: 10 days application course
[13] = ip, rats, 0.1 mg/kg i.p. 20 min before training, piracetam 250 mg/kg 60 min before training
[14] = rats, 0.1 mg/kg i.p. 20 min before training, piracetam 250 mg/kg 60 min before training

T1 sequence (P22303-2 with tags, fused parts or gaps limits assumed): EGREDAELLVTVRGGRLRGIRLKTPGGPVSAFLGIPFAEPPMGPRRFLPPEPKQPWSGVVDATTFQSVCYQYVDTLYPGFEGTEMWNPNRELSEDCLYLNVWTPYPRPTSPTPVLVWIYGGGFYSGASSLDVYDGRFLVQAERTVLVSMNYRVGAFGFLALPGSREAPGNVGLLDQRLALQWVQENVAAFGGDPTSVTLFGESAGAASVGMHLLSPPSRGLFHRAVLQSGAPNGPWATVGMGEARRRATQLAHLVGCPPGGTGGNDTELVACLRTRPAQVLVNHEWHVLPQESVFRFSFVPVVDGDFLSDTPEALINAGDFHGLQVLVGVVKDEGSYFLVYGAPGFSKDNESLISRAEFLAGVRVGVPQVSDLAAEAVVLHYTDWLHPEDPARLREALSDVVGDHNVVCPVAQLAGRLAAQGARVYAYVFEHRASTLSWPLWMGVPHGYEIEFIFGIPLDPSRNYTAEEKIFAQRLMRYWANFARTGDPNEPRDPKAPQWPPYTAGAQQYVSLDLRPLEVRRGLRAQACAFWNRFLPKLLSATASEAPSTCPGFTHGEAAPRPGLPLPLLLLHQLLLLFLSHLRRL

Row | Compound | Antiamnestic activity in Step-down test (% of mice with latency > cut off) [1] | LD50 [2] | Motor activity increment (% to control) [3] | IC50 [4] | change in vivo at 0.1 mg/kg [5, 13] | Increase of duration of arecoline induced hyperkynesis (% to control) [6] | The shift of activation region of K channels: substance lowest concentrations in M producing measureable shift of 1-2 mV [7] | Performance of normal rats in passive avoidance test ([5]; normal rats) | other results
1 | CC1(C)CC(=O)c2c(nc3ccccc3c2N)C1 [IVb] | 0 % of mice | 70 ± 4.3 mg/kg | 0 % to control | 3.5e-06 M | 30% | 33 % to control | no effect |  | Block of K-channels IC (M) [7]: no effect
2 | NC(=O)CN1CCCC1=O [Piracetam, piracetam, reference compound] |  | 1000 mg/kg | 0 % to control |  |  | 0 % to control |  |  | Passive avoidance latency in 7 days after training [8]: 120.0 ± 24.3 s; Acetylcholinesterase inhibition IC50 (M) [4]: no effect; change in vivo at 0.1 mg/kg [5]: 63%; Passive avoidance latency [9]: 162.3 ± 13.3 s
3 | CN1[C@@H]2C[C@@H](OC(=O)[C@H](CO)c3ccccc3)C[C@H]1[C@@H]1O[C@@H]12 [Scopolamine (Sc), scopolamine] |  |  |  |  |  |  |  |  | Passive avoidance latency [9]: 70.4 ± 10.5 s
4 | CC1(C)C=Cc2c(nc3ccccc3c2N)C1 [VIIb] | 25 % of mice | 37.5 ± 0.9 mg/kg | 41 % to control | 7.5e-08 M | 40% | 25 % to control |  | statistically significantly improved performance of normal rats | Antiamnestic activity in Step-down test [1]: pronounced antiatonestic activity, comparable with that of amiridine and tacrine; Block of K-channels IC (M) [7]: no effect
5 | CC1(C)C=Cc2c(nc3ccccc3c2NCc2ccc(Cl)cc2)C1 [VIId] | 20 % of mice | 126 ± 8.9 mg/kg | 28 % to control | 6e-09 M | 60% | 15 % to control |  | statistically significantly improved performance of normal rats | Change of lipid composition in adipocytes [10]: significaut lipolytic effect; also recorded: significant lipolytic effect; Lipid-regulative effect compared with probucol [10]: not inferior; Potency of effect on lipid composition of adipocytes [10]: most potent effect on lipid composition of adipocytes; FFA/TG in adipocytes [10]: 1.16; PL/CL in adipocytes [10]: 0.69; PL/TG in adipocytes [10]: 0.73; FFAc/FFAm [10]: 1.07; PLc/PLm [10]: 0.97; FFA/TG in incubation medium [11]: 0.96; PL/CL in incubation medium [11]: 0.75; PL/TG in incubation medium [11]: 0.67; Improving learning and memory compared with amiridine and piracetam ([5]; normal rats, passive avoidance test): as effective in improving learning and memory as amiridine and piracetam
6 | Cc1ccc(CNc2c3c(nc4ccccc24)CC(C)(C)CC3O)c(C)c1 (centres unmarked) [VIi] | 0 % of mice |  | 13 % to control | 1e-06 M |  | 46 % to control | no effect |  | LD50 (mg/kg) by Kerber [2]: 75.0 ± 1.2 mg/kg; Increase of the number of correct trails (% to control). Passive avoidance test (rats) [5, 14]: 15 % to control
7 | Cc1ccc(CNc2c3c(nc4ccccc24)CC(C)(C)CC3O)c(C)c1 (centres unmarked) [VIj] | 0 % of mice |  | 55 % to control | 2.5e-06 M |  | 13 % to control | no effect | statistically significantly improved performance of normal rats | LD50 (mg/kg) by Kerber [2]: 33.4 ± 3.2 mg/kg; FFA/TG in adipocytes [10]: 1.08; PL/CL in adipocytes [10]: 0.80; PL/TG in adipocytes [10]: 0.85; FFAc/FFAm [10]: 0.95; PLc/PLm [10]: 1.24; FFA/TG in incubation medium [11]: 1.03; PL/CL in incubation medium [11]: 0.65; PL/TG in incubation medium [11]: 0.62; Increase of the number of correct trails (% to control). Passive avoidance test (rats) [5, 14]: 40 % to control
8 | CC1(C)CC(=O)c2c(nc3ccccc3c2NCc2ccccc2)C1 [Vb] | 0 % of mice | 735 ± 21.8 mg/kg | 80 % to control |  | 25% | 15 % to control | no effect |  | AChE inhibition IC (M) ([4]; Table 6): no effect; Acetylcholinesterase inhibition IC50 (M) [4]: no effect
9 | CC1(C)CC(=O)c2c(nc3ccccc3c2NCc2ccc(Cl)cc2)C1 [Vf] | 0 % of mice | > 1000 mg/kg | 13 % to control | 8e-05 M | 0% | 0 % to control | no effect |  | 
10 | CCCCNc1c2c(nc3ccccc13)CC(C)(C)CC2=O [Vo] |  |  |  |  |  |  |  |  | Change of lipid composition in adipocytes [10]: Accumulation of phospholipids in a cell; Content of methyl esters of fatty acids in adipocytes [10]: sharp decreases; PL/TG relations and cell cholesterol level [10]: increase PL/TG relations and decrease cell cholesterol level; Potency of effect on lipid composition of adipocytes [10]: most potent effect on lipid composition of adipocytes; Ejection of triacylglycerides into external medium [11]: enhanced ejection of triacylglycerides into external medium; Microviscosity of brain synaptosomes, amnestic syndrome [12]: normalizing of microviscosity of brain synaptosomes; Performance in passive avoidance test, amnestic syndrome ([9]; 10 days application course): improved performance in passive avoidance test in the 10 days application course to the level achieved under the treatment with reference drugs
